# Results: the METLIN SMRT retention time set (Domingo-Almenara et al. 2019)
# Assay: gradient 5% acetonitrile 3 min, to 50% in 2 min, to 85% in 15 min, held 3 min, 100 µL/min
# Settings: column: Zorbax Extend-C18 2.1 x 50 mm; eluents: water / acetonitrile, 0.1% formic acid
# Outline: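 A Zorbax Extend-C18 column (2.1 × 50 mm, 1.8 μm) run at 100 μL/min with water and acetonitrile, both containing 0.1% formic acid, separated mixtures of ~100 pure standards. The HPLC was coupled to a quadrupole time-of-flight mass spectrometer operated in positive and negative ionization mode, with dead and dwell volumes of 40 μL and 900 μL. Each retention time was taken from a computationally picked adduct peak that was then manually inspected.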
row,Compound,RP-LC retention time [s]
1,O=C(Nc1ccc(N2CCN(c3ccccc3)C2=O)nc1)c1ccccc1,906
2,Cc1noc(C2(NC(=O)c3ccc[nH]c3=O)CCCCC2)n1,621
3,O=C(NC1CCN(c2nnc3ccccn23)CC1)c1ccc2c(c1)OCO2,628
4,Cc1nnc(-c2cc(NC(=O)c3cccc(Br)c3)c(C)s2)o1,938
5,N#CC1(C(=O)Nc2ccc(F)c(F)c2)CC1,760
6,CCC1CN(C(=O)N2CCC(C(=O)NCCN3CCN(C)CC3)CC2)c2ccccc2O1 (stereo not given),606
7,O=C(NCCC1=CCCCC1)c1csc(Nc2ncccn2)n1,797
8,O=C(c1cccnc1)N1CCc2cc(-c3ccno3)ccc21,683
9,CN(CCNC(=O)CN1C(=O)CSc2cccn2-c2ccccc21)C1CCCCC1,670
10,Clc1ccc(Cl)c(-c2ccc(CNCCN3CCNCC3)o2)c1,603
11,CCCn1c(CCNC(=O)c2ccccc2)nc2cccnc21,633
12,CCOCCCNC(=O)CN1C(=O)C2CCCCN2c2ccc(C(=O)N3CCCC3)cc21 (stereo not given),694
13,Cc1ccc(NC(=O)Cc2cn3cc(F)ccc3n2)c(C)c1,610
14,COCC(=O)NC1CCC12CCN(Cc1ccc(C)o1)CC2 (stereo not given),583
15,O=C(NCc1ccc(F)cc1)C1CCc2nc(N3CCOCC3)ncc2C1 (stereo not given),808
16,O=C(Cn1nc2c3cc(Cl)ccc3ncn2c1=O)Nc1cccc(Cl)c1,730
17,Cc1ccnc(Nc2nc(C)c(C(=O)N3CCOCC3)s2)c1,617
18,Cc1csc(-c2cc(S(=O)(=O)N(Cc3cccs3)C3CCCC3)c(C)s2)n1,1320
19,CCC(=O)N1CCCCCCN(C)C(=O)[C@@H]2CCC[C@@H]21,726
20,CC(C)OCCCN(CC(=O)N1CCNCC1)C(=O)c1ccc(C(F)(F)F)cc1,653
21,CC(C)C(=O)n1nc(-c2ccccc2)nc1N,888
22,O=C(Cn1nc2c(N3CCCCCC3)nccn2c1=O)NCc1cc(F)cc(F)c1,744
23,O=C1CC2(CCN(S(=O)(=O)c3cc(F)ccc3F)CC2)Oc2ccccc21,929
24,CN(CCNC(=O)CCC(=O)N1CCc2c(c(C(=O)N3CCCC3)nn2C)C1)C1CCCCC1,590
25,O=S(=O)(NC1CCCC1)c1ccc(-c2nnc(C3CC3)o2)o1,812
26,Cc1noc(-c2cccc(OC3CN(C(=O)Cc4ccsc4)C3)c2)n1,857
27,O=C(Nc1ccc(F)cc1)c1c(O)c2cccnc2n(-c2ccccc2)c1=O,1240
28,CC(=O)c1ccc(NC(=O)Cn2c(C)cc(-c3nnc(C4CCC4)o3)c2C)cc1,813

row,Compound,RP-LC retention time [s]
1,CCn1cc(C)c(C(=O)O)c1CC(=O)NCCc1ccc(C)cc1,842
2,COc1cc(C(C)c2cc3c(cc2OCCO)OCO3)cc(OC)c1OC (stereo not given),798
3,O=C(CN1C(=O)CC(c2cccs2)=Nc2ccccc21)NC1CCCCC1,884
4,O=C(CC1CCN(C(=O)c2cc3cc(Cl)ccc3[nH]2)CC1)NCCCN1CCCC1,644
5,Cc1ccccc1NS(=O)(=O)c1cc2n(c1)CCCN(C)C2=O,666
6,Cc1cc(-c2ccc(N3C(=O)CC4(CCCC4)C3=O)c(C)c2)ccc1N1C(=O)CC2(CCCC2)C1=O,1170
7,Cn1cc(CC(=O)NCc2ccc(F)cc2Cl)c2cccnc21,727
8,Cc1ncsc1CN1CC(c2ncc(C)n2Cc2ccccc2)C1,559
9,COC(=O)C(C)NC(=O)NCc1cccn1Cc1ccccc1 (stereo not given),794
10,CCCCOc1cc(CC2CNC(=O)N2)ccc1OC (stereo not given),798
11,CCn1cnc(S(=O)(=O)N2CCC(C(=O)Nc3ccc(F)cc3)CC2)c1,709
12,Cc1ccc2[nH]cc(CCNC(=O)CCC(=O)N3CCSc4c3c(C)nn4-c3ccccc3)c2c1,896
13,Cc1oc(-c2[nH]ncc2C(=O)N2CCCC2)cc1S(=O)(=O)NCc1cccc(F)c1,706
14,O=C(C1CC1)N1CCC2(CCCCO2)CC1,668
15,Cc1cc(C)cc(NC(=O)N2CC(n3cnnc3-c3ccccc3)C2)c1,722
16,CCOc1ccc(S(=O)(=O)N2CCCC(C(=O)NCCO)C2)cc1 (stereo not given),662
17,CN(C)S(=O)(=O)c1ccc2c(c1)Cc1cc(S(=O)(=O)N(C)C)ccc1-2,820
18,CCNC(=O)N1CC(n2cc(C(=O)N(C)CCCc3c(C)nn(C)c3C)nn2)C1,569
19,COCCCNC(=O)C1CCCN(c2ccc(Sc3ccc(Br)cc3)nn2)C1 (stereo not given),777
20,Cc1ccc(CNC(=O)C2(C)CN(S(C)(=O)=O)CC(=O)N2Cc2ccc(N(C)C)cc2)cc1 (stereo not given),668
21,COc1cc(=O)n2c(c1C(=O)NCCC1=CCCCC1)CCCC2,723
22,CCOC(=O)c1ccc(NC(=O)Cn2nc3c(Oc4ccccc4)nccn3c2=O)cc1,852
23,Cc1noc(CC2CCOC3(CCN(C(=O)C4(c5ccccc5)CC4)CC3)C2)n1 (stereo not given),820
24,CCOC(=O)c1ccc(NC(=O)c2c(OC)cc(=O)n3c2CCCC3)cc1,718
25,CCc1noc(-c2cccn2CC#N)n1,824
26,CS(=O)(=O)c1ccc(C(=O)Nc2ccc(Cl)c(-c3ccccn3)c2)c(Cl)c1,891
27,CN[C@@H](C)C(=O)N[C@H](C(=O)N1CCC[C@H]1c1nc(C(=O)c2ccc(F)cc2)cs1)C1CCCCC1,787

# Continued, values first:
row,RP-LC retention time [s],Compound
1,631,COc1cc(-n2c(C)nc3cc(C(=O)NCC4CCCO4)ccc32)cc(OC)c1OC (stereo not given)
2,654,CCOC(=O)c1c(C)oc2nc(C)nc(N3CCN(c4ccccn4)CC3)c12
3,968,COC(=O)c1c(-c2ccc(Cl)cc2)noc1N1CCOCC1
4,916,COc1ccc(NC(=O)c2cnc3c(c2)c(=O)n(C)c(=O)n3-c2ccccc2)cc1Cl
5,698,Nc1ncnc(N2CCN(C(c3ccccc3)c3ccccc3)CC2)c1[N+](=O)[O-]
6,693,Cc1nc(-c2noc(-c3ccncc3)n2)cn1CC(=O)NCc1cccc(Cl)c1
7,682,COc1ccc(OC)c(CNC(=O)C2CCN(Cc3cn(C)c4ccc(OC)cc34)CC2)c1
8,849,COc1ccc(SCCCC(=O)NCc2ccccc2)cc1
9,1060,Cc1ccc(-n2ccc(=O)c(-c3nc(-c4ccc(OC(C)C)cc4)no3)n2)cc1
10,1020,Cc1ccc(Cn2cc(-c3noc(-c4ccc5c(c4)OCO5)n3)nn2)cc1
11,1160,Cc1ccc(-n2ncc3c(=O)n(Cc4nc(-c5ccc(Cl)cc5)no4)cnc32)cc1
12,609,COc1ccc(NC(=O)N2CCN(c3nc4ccccc4n3C)CC2)c(OC)c1
13,861,O=S(=O)(Cc1ccccc1F)N1CCOc2ccc(N3CCOCC3)cc2C1
14,1100,Cc1cccc(C)c1NC(=O)CSC1=Nc2ccccc2N=C(c2ccccc2)C1
15,732,CCOc1ccc(CCNC(=O)c2nc(N3CCCC3)c3ccccc3n2)cc1OCC
16,716,O=C(c1ccc(-c2cncnc2)nc1)N1CCN(c2ccccc2)CC1
17,681,COc1ccc(N2CCN(c3nc4ccccc4cc3-c3noc(C)n3)CC2)cc1
18,693,CCN(C(=O)c1nc(N2CCOCC2)c2cnn(C)c2n1)c1ccccc1

row,RP-LC retention time [s],Compound
1,594,O=C(C1CCN(S(=O)(=O)c2ccc(-c3ccn[nH]3)o2)CC1)N1CCN(c2ccccn2)CC1
2,759,COc1cc(OC)cc(C(=O)N(C)CCc2noc(-c3ccc(C(=O)N4CCCC4)cc3)n2)c1
3,843,COc1ccccc1CNC(=O)C1=C2CCCN2c2ccccc2S1(=O)=O
4,663,COc1ccc(Nc2c(-c3ccc(C(=O)O)cc3)nc3cnccn23)cc1OC
5,1330,Cc1cc(OCc2nc(C)c(C(=O)Nc3nc(-c4ccccc4)cs3)s2)ccc1Cl
6,684,CCOc1ccc(N2CCn3c2nnc(C(=O)NCc2ccco2)c3=O)cc1
7,853,COc1cccc(N2C=C(C(=O)N3CCCC3)S(=O)(=O)c3ccc(Cl)cc32)c1
8,920,COc1ccccc1-c1noc(C2CCCN2C(=O)Nc2ccc(Cl)cc2)n1 (stereo not given)
9,694,COc1ccccc1N1CCN(Cc2nc(-c3ccc(N4CCOCC4)nc3)no2)CC1
10,1260,CC(Oc1ccccc1F)C(=O)Nc1ccc(-c2nc(-c3ccc(F)cc3)no2)cc1 (stereo not given)
11,913,CCOc1ccc(S(=O)(=O)NCc2c(-c3ccccc3)nc3sc(C)nn23)cc1
12,761,COc1ccc(OC)c(CNC(=O)C2CCCN(c3ncnc4c3oc3ccccc34)C2)c1 (stereo not given)
13,813,Cc1cc(N2CCOCC2)nc(N2CCN(S(=O)(=O)c3ccc4c(c3)Cc3ccccc3-4)CC2)n1
14,753,O=C(c1ccco1)N1CCN(c2ccc(=O)n(-c3cccc(Cl)c3)n2)CC1
15,1390,CCOc1ccc(-n2cc(-c3nc(-c4cccc(OC)c4)no3)c3ccccc3c2=O)cc1
16,735,Cc1csc(C(=O)Nc2ccc(N3CCCN(C(=O)C4CC4)CC3)cc2)c1
17,683,COc1ccc(Nc2c(-c3ccc(C)cc3)nc3ncccn23)cc1OC
